Source: ChEMBL document CHEMBL4619752, “Optimization and biological evaluation of thiazole-bis-amide inverse agonists of RORγt” (Bioorg Med Chem Lett, 2020)
≈ marks a conversion by molar mass, not a printed value.

Tests used:
physchem [1] = conditions: buffer, pH 2
physchem [2] = conditions: buffer, pH 7
in vitro [3] = conditions: human, microsomes
in vivo [4] = conditions: rat, po, 50 mg/kg
in vivo [5] = conditions: rat, po, 200 mg/kg
in vivo [6] = conditions: rat, po, 200 mg/kg; remark: listed apart in the source
in vitro [7] = conditions: rat, microsomes
in vivo [8] = conditions: rat, po, 200 mg/kg; remark: listed apart in the source
in vivo [9] = conditions: rat, po, 200 mg/kg; remark: listed apart in the source
in vivo [10] = conditions: rat, po, 50 mg/kg; remark: listed apart in the source
in vivo [11] = conditions: rat, po, 50 mg/kg; remark: listed apart in the source
in vivo [12] = conditions: rat, po, 200 mg/kg; remark: listed apart in the source
in vivo [13] = conditions: rat, po, 50 mg/kg; remark: listed apart in the source
in vivo [14] = conditions: rat, po, 50 mg/kg; remark: listed apart in the source
in vivo [15] = conditions: rat, po, 50 mg/kg; remark: listed apart in the source
in vivo [16] = conditions: rat, po, 200 mg/kg; remark: listed apart in the source

SMILES | solubility (physchem [1]) | solubility (physchem [2]) | half-life (in vitro [3]) | half-life (in vitro [7]) | other results
C[C@H](NS(=O)(=O)c1ccc(-c2sc(C(=O)NCC(C)(C)O)nc2C(=O)N2CC3CC3C2)c(Cl)c1Cl)C(F)(F)F (some centres undefined) | 7 µM (≈ 4.41 µg/mL) | 8.7 µM (≈ 5.48 µg/mL) | – | – | –
C[C@H](NS(=O)(=O)c1ccc(-c2sc(C(=O)NCC(C)(C)O)nc2C(=O)N2CCC(F)CC2)c(Cl)c1Cl)C(F)(F)F | 114 µM (≈ 74 µg/mL) | 116 µM (≈ 75.3 µg/mL) | > 3 h | > 3 h | Cmax at 4 day (in vivo [4]): 252 ng/mL; Cmax at 14 day (in vivo [5]): 1280 ng/mL; Cmax (in vivo [6]): 49400 ng/mL; AUC (in vivo [8]): 6000 ng·h/mL; Cmax at 4 day (in vivo [9]): 1900 ng/mL; AUC (in vivo [10]): 870 ng·h/mL; AUC (in vivo [11]): 1110 ng·h/mL; AUC (in vivo [12]): 5020 ng·h/mL; Cmax (in vivo [13]): 11200 ng/mL; Cmax at 14 day (in vivo [14]): 417 ng/mL; AUC (in vivo [15]): 31500 ng·h/mL; AUC (in vivo [16]): 282000 ng·h/mL
C[C@H](NS(=O)(=O)c1ccc(-c2sc(C(=O)NCC(C)(C)O)nc2C(=O)N2CC[C@@H](F)C[C@@H]2C)c(Cl)c1Cl)C(F)(F)F | 41 µM (≈ 27.2 µg/mL) | 47 µM (≈ 31.2 µg/mL) | – | – | –
C[C@H](NS(=O)(=O)c1ccc(-c2sc(C(=O)NCC(C)(C)O)nc2C(=O)N2CCC[C@@H]2CF)c(Cl)c1Cl)C(F)(F)F | < 4 µM | 4 µM (≈ 2.6 µg/mL) | – | – | –
CC[C@H](NS(=O)(=O)c1ccc(-c2sc(C(=O)NCC(C)(C)O)nc2C(=O)N(CC)CC)c(Cl)c1Cl)C(F)(F)F | 32 µM (≈ 20.3 µg/mL) | 44 µM (≈ 27.9 µg/mL) | > 3 h | > 3 h | –
C[C@H](NS(=O)(=O)c1ccc(-c2sc(C(=O)NCC(C)(C)O)nc2C(=O)N2CCCC[C@@H]2C)c(Cl)c1Cl)C(F)(F)F | 19 µM (≈ 12.3 µg/mL) | 21 µM (≈ 13.6 µg/mL) | > 3 h | 0.817 h | –
CC(C)(O)CNC(=O)c1nc(CC2CCCCC2)c(-c2ccc(S(=O)(=O)NC(C)(C)C)c3ccccc23)s1 | – | < 1 µM | 1.25 h | 0.783 h | –
C[C@H](NS(=O)(=O)c1ccc(-c2sc(C(=O)NCC(C)(C)O)nc2C(=O)N2CC[C@H](F)C[C@@H]2C)c(Cl)c1Cl)C(F)(F)F | 40 µM (≈ 26.5 µg/mL) | 54 µM (≈ 35.8 µg/mL) | > 3 h | 1.13 h | –
CC(C)(O)CNC(=O)c1nc(C(=O)N2CCCCC2)c(-c2ccc(S(=O)(=O)NC(C)(C)C)c3ccccc23)s1 | – | 1.1 µM (≈ 0.63 µg/mL) | 1.35 h | 0.2 h | –
C[C@H](NS(=O)(=O)c1ccc(-c2sc(NC(=O)CC(C)(C)O)nc2C(=O)N2CCC(F)CC2)c(Cl)c1Cl)C(F)(F)F | 16 µM (≈ 10.4 µg/mL) | 15 µM (≈ 9.74 µg/mL) | > 3 h | 2.45 h | –
